Assay results: patent US7232837B2, “Stereoisomers with high affinity for adrenergic receptors” (McNeil-PPC, Inc., priority 1999, dated 2007)

Tests used:
[1] = tested on: New Zealand white rabbits; experiment: Pupil diameter / mydriasis after topical application to the rabbit eye; type: in vivo; conditions: mean ± S.E.
Protocol: These diastereomers were administered topically as either 1% or 2% solutions in buffered saline. Pupillary diameter and IOP were measured in all animals over a six hour time period during the day to minimize diurnal variations in IOP and pupil diameter.
The experiments were performed on adult male New Zealand white rabbits weighing 3.0–6.0 kg. All rabbits were caged individually and maintained on a 12 hr/12 hr light/dark schedule with free access to food and water. All animal procedures were in conformity with the ARVO Resolution on the Use and Care of Animals in Research. All treated rabbits had served as controls by having received a saline treatment on a different day.
Only one eye received drug treatment. The contralateral eye served as a control. Saline (or PBS) and drug treated rabbits were treated and observed simultaneously. A single dose was given at time zero and IOP and pupil diameter measured at −1.0, −0.5, 0.5, 1, 3 and 5 hrs post-treatment.
Pupil diameter was measured visually at the point of the greatest horizontal diameter with a transparent millimeter ruler. All measurements were made under the identical ambient lighting conditions.
Mean and Standard Error values were used to construct time-response and dose-response curves for the treated and contralateral eye of research rabbits. The data were analyzed statistically by an analysis of variance and a Bonferoni's test for significance. P<0.05 was the accepted level of significance.

[2] = tested on: New Zealand white rabbits; experiment: Intraocular pressure (IOP) after topical application to the rabbit eye; type: in vivo; conditions: mean ± S.E.
Swiss-Webster mice [3] = experiment: H1 receptor antagonist (triprolidine) interaction study, locomotor activity in mice; conditions: mice pretreated with triprolidine 20 min before the test compound
Protocol: H1 receptor antagonist interaction studies. […] The mice were immediately placed in the activity testing chamber for a 2-h session. Doses of the test compound were selected from the ascending or descending time of the dose-effect curve determined from the compound-alone studies. Eight mice were tested for each triprolidine/test compound combination.
Statistical analysis. Time course data for each compound were considered in 2-way analyses of variance with dose as a between-group and time as a within-group factor. The dose-effect data were considered in 1-way analyses of variance, and planned individual comparisons were conduced between each dose and the saline control group. Interaction studies were considered in 2-way analyses of variance, with Pretreatment and Test dose as the factors.

Swiss-Webster mice [4] = experiment: Locomotor stimulant and depressant effects in mice; conditions: i.p.
[5] = 1% topical, drug treated eye (T), 0.5 hr
[6] = 1% topical, drug treated eye (T), 1 hr
[7] = 1% topical, drug treated eye (T), 3 hr
[8] = 1% topical, drug treated eye (T), 5 hr
[9] = 1% topical, drug treated eye (T), −0.5 hr (pre-treatment)
[10] = 1% topical, drug treated eye (T), −1 hr (pre-treatment)
[11] = 1% topical, untreated contralateral eye (U), 0.5 hr
[12] = 1% topical, untreated contralateral eye (U), 1 hr
[13] = 1% topical, untreated contralateral eye (U), 3 hr
[14] = 1% topical, untreated contralateral eye (U), 5 hr
[15] = 1% topical, untreated contralateral eye (U), −0.5 hr (pre-treatment)
[16] = 1% topical, untreated contralateral eye (U), −1 hr (pre-treatment)
[17] = 2% topical, drug treated eye (T), 0.5 hr
[18] = 2% topical, drug treated eye (T), 1 hr
[19] = 2% topical, drug treated eye (T), 3 hr
[20] = 2% topical, drug treated eye (T), 5 hr
[21] = 2% topical, drug treated eye (T), −0.5 hr (pre-treatment)
[22] = 2% topical, drug treated eye (T), −1 hr (pre-treatment)
[23] = 2% topical, untreated contralateral eye (U), 0.5 hr
[24] = 2% topical, untreated contralateral eye (U), 1 hr
[25] = 2% topical, untreated contralateral eye (U), 3 hr
[26] = 2% topical, untreated contralateral eye (U), 5 hr
[27] = 2% topical, untreated contralateral eye (U), −0.5 hr (pre-treatment)
[28] = 2% topical, untreated contralateral eye (U), −1 hr (pre-treatment)

With `CNC[C@@H](O)c1cccc(O)c1` [(+)-Phenylephrine, (+)-phenylephrine] the “Pupil Diameter” value [1, 5] was 6 ± 0.2 mm, the “Pupil Diameter” value [1, 6] was 9 ± 0.2 mm and the “Pupil Diameter” value [1, 7] was 9 ± 0.2 mm. For the same compound, the “Pupil Diameter” value [1, 8] was 9 ± 0.2 mm, the “Pupil Diameter” value [1, 9] was 5 ± 0.2 mm and the “Pupil Diameter” value [1, 10] was 5 ± 0.2 mm. The “Pupil Diameter” value [1, 11] was 6 ± 0.2 mm, the “Pupil Diameter” value [1, 12] was 9 ± 0.2 mm and the “Pupil Diameter” value [1, 13] was 9 ± 0.2 mm. For the same compound, the “Pupil Diameter” value [1, 14] was 9 ± 0.2 mm, the “Pupil Diameter” value [1, 15] was 5 ± 0.2 mm and the “Pupil Diameter” value [1, 16] was 5 ± 0.2 mm. The “Pupil Diameter” value [1, 17] was 6 ± 0.2 mm, the “Pupil Diameter” value [1, 18] was 9 ± 0.2 mm and the “Pupil Diameter” value [1, 19] was 9 ± 0.2 mm. For the same compound, the “Pupil Diameter” value [1, 20] was 9 ± 0.2 mm, the “Pupil Diameter” value [1, 21] was 5 ± 0.2 mm and the “Pupil Diameter” value [1, 22] was 5 ± 0.2 mm. The “Pupil Diameter” value [1, 23] was 6 ± 0.2 mm, the “Pupil Diameter” value [1, 24] was 9 ± 0.2 mm and the “Pupil Diameter” value [1, 25] was 9 ± 0.2 mm. For the same compound, the “Pupil Diameter” value [1, 26] was 9 ± 0.2 mm, the “Pupil Diameter” value [1, 27] was 5 ± 0.2 mm and the “Pupil Diameter” value [1, 28] was 5 ± 0.2 mm. The IOP [2, 5] was 16 ± 1.5 mmHg, the IOP [2, 6] was 16 ± 0.7 mmHg and the IOP [2, 7] was 15 ± 0.5 mmHg. For the same compound, the IOP [2, 8] was 16 ± 1.0 mmHg, the IOP [2, 9] was 18 ± 2.1 mmHg and the IOP [2, 10] was 19 ± 1.8 mmHg. For the same compound, the IOP [2, 11] was 19 ± 1.8 mmHg, the IOP [2, 12] was 17 ± 1.1 mmHg and the IOP [2, 13] was 16 ± 1.0 mmHg. For the same compound, the IOP [2, 14] was 17 ± 1.7 mmHg, the IOP [2, 15] was 19 ± 2.0 mmHg and the IOP [2, 16] was 21 ± 2.0 mmHg. The IOP [2, 17] was 20 ± 1.7 mmHg, the IOP [2, 18] was 19 ± 1.8 mmHg and the IOP [2, 19] was 19 ± 2.2 mmHg. The IOP [2, 20] was 16 ± 2.4 mmHg, the IOP [2, 21] was 19 ± 0.8 mmHg and the IOP [2, 22] was 19 ± 0.9 mmHg. For the same compound, the IOP [2, 23] was 21 ± 1.7 mmHg, the IOP [2, 24] was 22 ± 2.2 mmHg and the IOP [2, 25] was 20 ± 1.8 mmHg. The IOP [2, 26] was 18 ± 1.9 mmHg, the IOP [2, 27] was 19 ± 2.2 mmHg and the IOP [2, 28] was 19 ± 1.6 mmHg. For the same compound, the “effect of triprolidine pretreatment on stimulant or depressant effects” value (Swiss-Webster mice [3]) was “failed to show significant modification of stimulant or depressant effects”, the “Depression Time: 30-min period following injection in which the maximal depression occurred” value (Swiss-Webster mice [4]) was 0 to 30 min and the “Stimulation Time: 30-min period following injection in which the maximal stimulant effect occurred” value (Swiss-Webster mice [4]) was 60 to 90 min. For the same compound, the “locomotor depressant effects, time course (result in words)” value (Swiss-Webster mice [4]) was “dose-dependent locomotor depression within 10 to 20 minutes following injection” and the “Depression Potency: dose resulting in ½ the maximal depressant effect (ID50)” value (Swiss-Webster mice [4]; — denotes absence of significant effect) was 53.3 mg/kg.
